The conditions of data set [1]: prolonged treatment (for acne); cited from earlier work.
Data set [2] has as its system human lymphoma Molt-4 cells. In words: Growth of human lymphoma Molt-4 cells. It is filed as cell-based. The following applies: 5 μg/ml, read-out: inhibition of cell growth. The text has this: (§1) The intestine epithelial cells have a high proliferation rate. Thus, the anti-proliferating effect of semisynthetic or synthetic tetracyclines may lead to potential side effects, especially during a long-term therapy.

For data set [3] the following is noted: cited from earlier work.
In data set [4] the test system is human intestine cell line CCL-221. Put plainly: Growth of human intestine cell line CCL-221. The following applies: 5 μg/ml. It is filed as cell-based.
Source text: as §1

In the next data set the test system is various cell types. The following applies: in vitro and in vivo; cited from earlier work.
Setting [5] is: human subjects, concurrently with a protein diet (Welling, 1977).

The values that follow come from patent US20080233206A1, “COMPOSITIONS AND METHODS FOR ANTI-INFLAMMATORY TREATMENTS” (Molecular Research Center, Inc., priority 2007, published 2008).

Where two headings read alike, the source gives them in different places.

Usually inhibition stands for the share of the control response that was lost under treatment.

As for `CN(C)c1ccc(O)c2c1C[C@H]1C[C@H]3[C@H](N(C)C)C(O)=C(C(N)=O)C(=O)[C@@]3(O)C(O)=C1C2=O` [minocycline], the induced syndrome result in data set [1] is given as “drug-induced lupus”.

Consider `CN(C)[C@@H]1C(O)=C(C(N)=O)C(=O)[C@@]2(O)C(O)=C3C(=O)c4c(O)cccc4[C@@](C)(O)[C@H]3C[C@@H]12` [tetracycline, 4-(Dimethylamino)-1,4,4α,5,5α,6,11,12α-octahydro-3,6,10,12,12α-pentahydroxy-6-methyl-1,1′-dioxo-2-naphtacenecarobxamide], for which, in data set [2], the inhibition at 5 µg/mL is roughly 20%. The serum level in data set [3] (setting [5]) was 1800 ng/mL.

As to `C[C@H]1c2cccc(O)c2C(=O)C2=C(O)[C@]3(O)C(=O)C(C(N)=O)=C(O)[C@@H](N(C)C)[C@@H]3[C@@H](O)[C@@H]21` [doxycycline], the inhibition at 5 µg/mL is roughly 60% in data set [4] and roughly 80% in data set [2]. Besides, the serum level was 2700 ng/mL in data set [3] (fasting subjects (Depperman, 1989)); 2600 ng/mL in data set [3] (setting [5]); 450 ng/mL in data set [3] (with antacid (aluminum-magnesium hydroxide) (Depperman, 1989)).

`NC(=O)C1=C(O)C[C@@H]2C[C@@H]3Cc4cccc(O)c4C(=O)C3=C(O)[C@]2(O)C1=O` [CMT-3]: in the data set with various cell types, the “effect on cell proliferation” value was “inhibit proliferation”.
